Data: patent US8168592B2 (Amgen Inc., priority 2005, dated 2012)
Like-named read-outs stand apart in the source and are kept apart here. Square brackets hold non-standard residues; d marks the D form. Peptide text beside a SMILES is read from it. 1Nal = N[C@@H](Cc1cccc2ccccc12)C(=O)O; hArg = N=C(N)NCCCC[C@H](N)C(=O)O; Cit = NC(=O)NCCC[C@H](N)C(=O)O

Tests used:
[1] = solubility in aqueous conjugation buffers; type: physicochemical
Procedure: Co-solvent mediated conjugation of vehicle to CGRP peptide antagonists. […] In an attempt to better solubilize these less soluble peptides during the conjugation reaction, and thereby improve conjugate yields, a variety of alcohol co-solvents were tested in the conjugation reaction.

[2] = in vitro stability in 5% mouse plasma, sandwich ELISA
Procedure: Peptide samples at 2 mg/ml in PBS were spiked with 5% mouse plasma and analyzed by sandwich ELISA (as described in Example 3 herein above) over 48 hours at room temperature. Peptide integrity was determined by sandwich ELISA requiring intact peptide termini.

[3] = in vitro stability in 10% human plasma, LC-MS/MS; type: in vitro ADME; details: room temperature, 100 ng/ml
Procedure: Consequently, the stability of select, non-PEGylated analogs was evaluated in vitro in the presence of 10% rat or human plasma. Briefly, samples of each peptide were diluted to 100 ng/ml into PBS containing 10% of rat or human plasma. Each sample was then incubated at room temperature and analyzed by LC-MS/MS to quantitate the intact peptide remaining at select time points over 6 hours.

[4] = monkey pharmacokinetic studies; details: cynomolgus monkey, in vivo, iv, 6 mg/kg
Procedure: Monkey pharmacokinetic studies. […] A complete blood chemistry panel was performed on each monkey prior to each study day to obtain baseline values and ensure hematological recovery. A catheter was placed in the cephalic vein of three male Cynomolgus monkeys (Macaca fascicularis) for blood sampling during the study. For the intravenous (iv) leg of the study, a catheter was also placed in a saphenous vein for infusion of test compound. On each study day, the monkeys were placed in restraining chairs for the first 4 h of the study to facilitate drug administration and blood sampling. For administration of antagonist, each monkey received solubilized peptide (dose and SEQ ID listed in Table 11 below) either as a 30-min intravenous infusion (4 mL/kg/h) or as a single subcutaneous bolus (approx. 1.0 mL/animal). Blood samples were collected from each study animal at various times during and after drug administration, plasma samples (100 μL) were isolated by centrifugation and stored at −70° C. until analysis. For monkeys receiving intravenous infusion, such a sample was also taken at 20 min during the infusion.

CGRP1 receptor = biological target: T1, CGRP1 receptor (Homo sapiens, UniProt O60894+Q16602); test: in vitro CGRP1 receptor mediated cAMP assay in SK-N-MC cells; type: cell-based; details: read-out: IC50
T1 construct: SK-N-MC cells express CRLR and RAMP1, which form CGRP1 receptor; endogenous in cells; host or cells: SK-N-MC human neuroblastoma cells
Outline: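 Human SK-N-MC neuroblastoma cells, which endogenously express CRLR/RAMP1, were plated two days before assay and preincubated in plasma-free medium for 15 minutes at room temperature. Cells were then lysed for 30 minutes at 37° C, and cAMP in the lysates was quantified by competitive cAMP-AP chemiluminescent ELISA.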

[5] = biological target: T2, CGRP1 receptor (human neuroblastoma cell (SK-N-MC) membrane) (Homo sapiens, UniProt O60894+Q16602); test: CGRP1 binding assay (125I-hαCGRP displacement)
T2 construct: human neuroblastoma cell (SK-N-MC) membrane suspension; purchased PerkinElmer; host or cells: SK-N-MC human neuroblastoma cell membranes (endogenous receptor)
Procedure: CGRP1 binding experiments. […] The plates were incubated at room temperature for 2 hour with shaking at 60 rpm, then the contents of each well were filtered over 0.5% polyethyleneimine (PEI)-treated (at least one hour) GF/C 96-well filter plates. The GF/C filter plates were washed 6 times with ice-cold 50 mM Tris, pH 7.5 and dried in an oven at 55 C for 1 hour. The bottoms of the GF/C plates were then sealed, and 40 μl Microscint™ 20 was added to each well, then the tops of the GF/C plates were sealed with TopSeal™-A, a press-on adhesive sealing film, and the GF/C plates were counted with TopCount NXT (Packard). The data were analyzed by using ActivityBase (IDBS) or Prizm (GraphPad) software.

T1 sequence (Q16602 23-461): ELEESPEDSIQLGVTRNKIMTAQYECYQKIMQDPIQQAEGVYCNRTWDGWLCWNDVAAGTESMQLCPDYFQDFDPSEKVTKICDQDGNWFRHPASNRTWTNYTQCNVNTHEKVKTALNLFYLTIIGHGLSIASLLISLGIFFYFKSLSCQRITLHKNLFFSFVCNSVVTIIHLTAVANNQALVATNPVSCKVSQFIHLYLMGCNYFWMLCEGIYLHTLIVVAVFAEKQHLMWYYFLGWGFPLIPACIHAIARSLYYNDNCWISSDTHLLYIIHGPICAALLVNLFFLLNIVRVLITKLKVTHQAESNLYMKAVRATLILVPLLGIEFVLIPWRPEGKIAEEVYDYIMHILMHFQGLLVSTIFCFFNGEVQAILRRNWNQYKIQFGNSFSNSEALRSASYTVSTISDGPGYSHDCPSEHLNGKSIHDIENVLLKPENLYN
T1 sequence (O60894 27-148): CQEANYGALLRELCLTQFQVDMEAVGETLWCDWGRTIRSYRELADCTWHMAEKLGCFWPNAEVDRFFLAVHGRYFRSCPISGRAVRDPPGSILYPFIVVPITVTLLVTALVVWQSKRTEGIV
T2 sequence (Q16602 23-461): as the sequence (Q16602 23-461) above
T2 sequence (O60894 27-148): as the sequence (O60894 27-148) above

## CC(=O)N[C@@H](Cc1c[nH]c2ccccc12)C(=O)N[C@H](C(=O)N[C@H](C(=O)N[C@@H](Cc1cnc[nH]1)C(=O)N[C@@H](CCCNC(N)=O)C(=O)N[C@@H](CC(C)C)C(=O)N[C@@H](C)C(=O)NCC(=O)N[C@@H](CC(C)C)C(=O)N[C@@H](CC(C)C)C(=O)N[C@@H](CO)C(=O)N[C@@H](CCCNC(N)=O)C(=O)N[C@@H](CO)C(=O)NCC(=O)NCC(=O)N[C@H](C(=O)N[C@H](C(=O)N[C@@H](CCCCNC(=N)N)C(=O)N[C@@H](CCCCN)C(=O)N[C@@H](CC(N)=O)C(=O)N[C@@H](Cc1ccccc1)C(=O)N[C@H](C(=O)N1CCC[C@H]1C(=O)N[C@H](C(=O)N[C@@H](CC(=O)O)C(=O)N[C@H](C(=O)NCC(=O)N1CCC[C@H]1C(=O)N[C@@H](Cc1ccccc1)C(=O)N[C@@H](C)C(=O)N[C@@H](Cc1ccccc1)C(N)=O)C(C)C)[C@@H](C)O)C(C)C)C(C)C)C(C)C)[C@@H](C)O)C(C)C [SEQ ID NO:739]
[1]
  solubility in words: relatively insoluble

## CC(=O)N[C@@H](Cc1c[nH]c2ccccc12)C(=O)N[C@H](C(=O)N[C@H](C(=O)N[C@@H](Cc1cnc[nH]1)C(=O)N[C@@H](CCCN=C(N)N)C(=O)N[C@@H](CC(C)C)C(=O)N[C@@H](C)C(=O)NCC(=O)N[C@@H](CC(C)C)C(=O)N[C@@H](CC(C)C)C(=O)N[C@@H](CO)C(=O)N[C@@H](CCCN=C(N)N)C(=O)N[C@@H](CO)C(=O)NCC(=O)NCC(=O)N[C@H](C(=O)N[C@H](C(=O)N[C@@H](CCCN=C(N)N)C(=O)N[C@@H](CCCCN)C(=O)N[C@@H](CC(N)=O)C(=O)N[C@@H](Cc1ccccc1)C(=O)N[C@H](C(=O)N1CCC[C@H]1C(=O)N[C@H](C(=O)N[C@@H](CC(=O)O)C(=O)N[C@H](C(=O)NCC(=O)N1CCC[C@H]1C(=O)N[C@@H](Cc1ccccc1)C(=O)N[C@@H](C)C(=O)N[C@@H](Cc1ccccc1)C(N)=O)C(C)C)[C@@H](C)O)C(C)C)C(C)C)C(C)C)[C@@H](C)O)C(C)C [SEQ ID NO: 7]
[2]
  recovery at 0 h, 2 mg/ml: 112 ± 1.8%
  recovery at 4 h, 2 mg/ml: 46.1 ± 60.1%
  recovery at 24 h, 2 mg/ml: 2.51 ± 0.573%
  recovery at 48 h, 2 mg/ml: 1.81 ± 0.754%
[3]; 0 h
  % Remaining: 100.0%
[3]; 0.17 h
  remaining at 0.17 h, 100 ng/ml: 60.3%
[3]; 0.5 h
  remaining at 0.5 h, 100 ng/ml: 13.8%
[3]; 1 h
  remaining at 1 h, 100 ng/ml: 4.9%
[3]; 2 h
  remaining at 2 h, 100 ng/ml: 0%
[3]; 3 h
  remaining at 3 h, 100 ng/ml: 0%
[3]; 4 h
  remaining at 4 h, 100 ng/ml: 0%
[3]; 5 h
  remaining at 5 h, 100 ng/ml: 0%
[3]; 6 h
  remaining at 6 h, 100 ng/ml: 0%

## CC(=O)N[C@@H](Cc1c[nH]c2ccccc12)C(=O)N[C@H](C(=O)N[C@H](C(=O)N[C@@H](Cc1c[nH]cn1)C(=O)N[C@@H](CCCNC(N)=O)C(=O)N[C@@H](CC(C)C)C(=O)N[C@@H](C)C(=O)NCC(=O)N[C@@H](CC(C)C)C(=O)N[C@@H](CC(C)C)C(=O)N[C@@H](CO)C(=O)N[C@@H](CCCNC(N)=O)C(=O)N[C@@H](CO)C(=O)NCC(=O)NCC(=O)N[C@H](C(=O)N[C@H](C(=O)N[C@@H](CCCCNC(=N)N)C(=O)N[C@@H](CCCCN)C(=O)N[C@@H](CC(N)=O)C(=O)N[C@@H](Cc1ccccc1)C(=O)N[C@H](C(=O)N1CCC[C@H]1C(=O)N[C@H](C(=O)N[C@@H](CC(=O)O)C(=O)N[C@H](C(=O)NCC(=O)N1[C@H](C(=O)N[C@@H](Cc2ccccc2)C(=O)N[C@@H](C)C(=O)N[C@@H](Cc2ccccc2)C(N)=O)C[C@@H]2CCCC[C@@H]21)C(C)C)[C@@H](C)O)C(C)C)C(C)C)C(C)C)[C@@H](C)O)C(C)C [SEQ ID NO: 658]
[4]
  AUC0-inf: 17000 ng·h/mL
  AUC0-t: 16900 ng·h/mL
  MRT: 25.2 min
  Vd: 0.174 L/kg
  clearance: 6.65 mL/min/kg
  half-life: 48 min

## CC(=O)N[C@@H](Cc1c[nH]c2ccccc12)C(=O)N[C@H](C(=O)N[C@H](C(=O)N[C@@H](Cc1cnc[nH]1)C(=O)N[C@@H](CCCN=C(N)N)C(=O)N[C@@H](CC(C)C)C(=O)N[C@@H](C)C(=O)NCC(=O)N[C@@H](CC(C)C)C(=O)N[C@@H](CC(C)C)C(=O)N[C@@H](CO)C(=O)N[C@@H](CCCN=C(N)N)C(=O)N[C@@H](CO)C(=O)NCC(=O)NCC(=O)N[C@H](C(=O)N[C@H](C(=O)N[C@@H](CCCN=C(N)N)C(=O)N[C@@H](CCCCN)C(=O)N[C@@H](CC(N)=O)C(=O)N[C@@H](Cc1ccccc1)C(=O)N[C@H](C(=O)N1CCC[C@H]1C(=O)N[C@H](C(=O)N[C@@H](CC(=O)O)C(=O)N[C@H](C(=O)NCC(=O)N1CCC[C@H]1C(=O)N[C@@H](Cc1ccccc1)C(=O)N[C@@H](C)C(=O)N[C@@H](Cc1ccccc1)C(N)=O)C(C)C)[C@@H](C)O)C(C)C)C(C)C)C(C)C)[C@@H](C)O)C(C)C [SEQ. ID NO: 7]
[1]
  solubility in words: relatively soluble

## CC(=O)N[C@@H](Cc1c[nH]c2ccccc12)C(=O)N[C@H](C(=O)N[C@H](C(=O)N[C@@H](Cc1c[nH]cn1)C(=O)N[C@@H](CCCNC(N)=O)C(=O)N[C@@H](CC(C)C)C(=O)N[C@@H](C)C(=O)NCC(=O)N[C@@H](CC(C)C)C(=O)N[C@@H](CC(C)C)C(=O)N[C@@H](CO)C(=O)N[C@@H](CCCNC(N)=O)C(=O)N[C@@H](CO)C(=O)NCC(=O)NCC(=O)N[C@H](C(=O)N[C@H](C(=O)N[C@@H](CCCCNC(=N)N)C(=O)N[C@@H](CCCCN)C(=O)N[C@@H](CC(N)=O)C(=O)N[C@@H](Cc1ccccc1)C(=O)N[C@H](C(=O)N1CCC[C@H]1C(=O)N[C@H](C(=O)N[C@@H](CC(=O)O)C(=O)N[C@H](C(=O)NCC(=O)N1CCC[C@H]1C(=O)N[C@@H](Cc1cccc2ccccc12)C(=O)N[C@@H](C)C(=O)N[C@@H](Cc1ccccc1)C(N)=O)C(C)C)[C@@H](C)O)C(C)C)C(C)C)C(C)C)[C@@H](C)O)C(C)C [compound 674] (Ac-WVTH[Cit]LAGLLS[Cit]SGGVV[hArg]KNFVPTDVGP[1Nal]AF-NH2)
CGRP1 receptor; Table 2A
  IC50: 1.31 to 1.51 nM
[5]; Table 3A
  Ki: 0.64 nM

## CC(C)[C@H](NC(=O)[C@H](CC(=O)O)NC(=O)[C@@H](NC(=O)[C@@H]1CCCN1C(=O)[C@@H](NC(=O)[C@@H](N)Cc1ccccc1)C(C)C)[C@@H](C)O)C(=O)NCC(=O)N1CCC[C@H]1C(=O)N[C@@H](Cc1ccccc1)C(=O)N[C@@H](C)C(=O)N[C@H](Cc1ccccc1)C(N)=O [compound 720]
[5]; Table 3B
  Ki: > 1000 nM

## CC(=O)N[C@@H](Cc1c[nH]c2ccccc12)C(=O)N[C@H](C(=O)N[C@H](C(=O)N[C@@H](Cc1cnc[nH]1)C(=O)N[C@@H](CCCNC(N)=O)C(=O)N[C@@H](CC(C)C)C(=O)N[C@@H](C)C(=O)NCC(=O)N[C@@H](CC(C)C)C(=O)N[C@@H](CC(C)C)C(=O)N[C@@H](CO)C(=O)N[C@@H](CCCNC(N)=O)C(=O)N[C@@H](CO)C(=O)NCC(=O)NCC(=O)N[C@H](C(=O)N[C@H](C(=O)N[C@@H](CCCCNC(=N)N)C(=O)N[C@@H](CCCCN)C(=O)N[C@@H](CC(N)=O)C(=O)N[C@@H](Cc1ccccc1)C(=O)N[C@H](C(=O)N1CCC[C@H]1C(=O)N[C@H](C(=O)N[C@@H](CC(=O)O)C(=O)N[C@H](C(=O)NCC(=O)N1CCC[C@H]1C(=O)N[C@@H](Cc1ccccc1)C(=O)N[C@@H](C)C(=O)N[C@@H](Cc1ccccc1)C(N)=O)C(C)C)[C@@H](C)O)C(C)C)C(C)C)C(C)C)[C@@H](C)O)C(C)C [compound 739]
[5]; Table 3A
  Ki: 0.53 nM

## Ac-WVTHRLAGLLSRSGGVVKNNFVPTDVGPFAF-NH2 [compound 5]
CGRP1 receptor; Table 3, unconjugated CGRP peptide analogs, n = 2-4
  IC50: 0.14 nM
CGRP1 receptor; Table 4, 20 k PEG-conjugated vs unconjugated peptides, n = 2-4
  IC50: 0.14 nM
[5]; Table 3B
  Ki: 0.06 nM

## Ac-WVTHRLAGLLSRSGGVVKNNFVPTDVGPFAF-NH2 [compound 684]
[5]; Table 3B
  Ki: 0.08 nM

## Ac-WVTHRLAGLLSRSGGVVRCNFVPTDVGPFAF-NH2 [compound 680]
[5]; Table 3B
  Ki: 0.58 nM

## H-FVPTDVAPFAF-NH2 [compound 717]
[5]; Table 3B
  Ki: > 1000 nM
